Test results taken from patent US7671084B2 (Wyeth, priority 2004, dated 2010).
Counter-ions that a name gives are not always drawn. Like-named read-outs stand apart in the source and are kept apart here.

Columns and labels:
human ERβ = biological target: T1, human ERβ (Homo sapiens, UniProt Q92731); test: Competition with [3H]-17β-estradiol for binding to ERβ; details: ligand binding domain of human ERβ in E. coli crude lysate, 2 nM [3H]-17β-estradiol, 5-15 hours at room temperature
T1 construct: made in house; host or cells: E. coli (crude lysate)
T1 sequence (Q92731 264-498 limits assumed): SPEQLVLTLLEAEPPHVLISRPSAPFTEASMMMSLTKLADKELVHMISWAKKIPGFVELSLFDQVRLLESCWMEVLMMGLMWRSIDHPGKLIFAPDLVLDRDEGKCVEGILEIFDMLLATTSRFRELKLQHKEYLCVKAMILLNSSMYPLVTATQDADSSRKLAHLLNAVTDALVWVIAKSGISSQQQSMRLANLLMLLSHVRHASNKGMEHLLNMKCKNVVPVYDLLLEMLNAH
Method: Representative examples of the invention were evaluated for their ability to compete with 17β-estradiol for both ERα and ERβ. This test procedure provides the methodology for one to determine whether a particular compound binds to the estrogen receptor (and is therefore “estrogenic”) and whether there is selectivity for ERα or ERβ. […] 17β-estradiol is included as a standard reference for comparison. The procedure used is briefly described below. A crude lysate of E. coli expressing the estrogen receptor ligand binding domains (D, E, & F) of human ERα or ERβ was prepared. Both receptors and compounds were diluted in 1× Dulbecco's PBS (DPBS) supplemented with 1 mM EDTA. Using a high binding masked microtiter plate, 100 uL of receptor (1 uG/well) was combined with 2 nm [^3H]-17β-estradiol and various concentrations of compound. After between 5 and 15 hours at room temperature, the plates were washed with DPBS/1 mM EDTA and bound radioactivity determined by liquid scintillation counting. The IC50 is defined as the concentration of compound that decreases total 17β-estradiol binding by 50%.

human ERα = biological target: T2, human ERα (Homo sapiens, UniProt P03372); test: Competition with [3H]-17β-estradiol for binding to ERα; details: ligand binding domain of human ERα in E. coli crude lysate, 2 nM [3H]-17β-estradiol, 5-15 hours at room temperature
T2 construct: made in house; host or cells: E. coli (crude lysate)
T2 sequence (P03372 311-547 limits assumed): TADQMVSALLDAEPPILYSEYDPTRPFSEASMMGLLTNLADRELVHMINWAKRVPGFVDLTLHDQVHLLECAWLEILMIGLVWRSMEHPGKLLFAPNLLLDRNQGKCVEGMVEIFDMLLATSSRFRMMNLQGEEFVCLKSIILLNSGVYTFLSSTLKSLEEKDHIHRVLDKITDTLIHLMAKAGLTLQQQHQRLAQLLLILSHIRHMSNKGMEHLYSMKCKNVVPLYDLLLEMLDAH
Method: Representative examples of the invention were evaluated for their ability to compete with 17β-estradiol for both ERα and ERβ. This test procedure provides the methodology for one to determine whether a particular compound binds to the estrogen receptor (and is therefore “estrogenic”) and whether there is selectivity for ERα or ERβ. The values are shown in the Table infra and are reported as IC50s. 17β-estradiol is included as a standard reference for comparison. The procedure used is briefly described below. A crude lysate of E. coli expressing the estrogen receptor ligand binding domains (D, E, & F) of human ERα or ERβ was prepared. Both receptors and compounds were diluted in 1× Dulbecco's PBS (DPBS) supplemented with 1 mM EDTA. Using a high binding masked microtiter plate, 100 uL of receptor (1 uG/well) was combined with 2 nm [^3H]-17β-estradiol and various concentrations of compound. After between 5 and 15 hours at room temperature, the plates were washed with DPBS/1 mM EDTA and bound radioactivity determined by liquid scintillation counting. The IC50 is defined as the concentration of compound that decreases total 17β-estradiol binding by 50%.

Row | IC50 (human ERβ) [nM] | IC50 (human ERα; read-out: ERα IC50 (cell prints uM)) [µM] | IC50 (human ERα; read-out: ERα (nM) IC50) [µM] | melting point [°C] | SMILES
1 | 3.05 | > 5 | – | – | Oc1ccc2c(c1)COc1c-2cc2ccc(O)cc2c1-c1ccncc1 [Example 37, 7-(4-Pyridyl)-5H-dibenzo[c,g]chromene-3,9-diol]
2 | 2 | – | 0.076 | 216 to 218 | Oc1ccc2c(c1)COc1c-2cc2ccc(O)cc2c1-c1ccoc1 [Example 47, 7-(3-Furyl)-5H-dibenzo[c,g]chromene-3,9-diol]
3 | 39 | – | 0.709 | 185 to 188 | Cc1cc(-c2c3c(cc4ccc(O)cc24)-c2ccc(O)cc2CO3)ccc1F [Example 46, 7-(3-Methyl-4-Fluorophenyl)-5H-dibenzo[c,g]chromene-3,9-diol]
4 | 22 | – | 1.82 | 245 to 248 | COc1ccc(-c2c3c(cc4ccc(O)cc24)-c2ccc(O)cc2CO3)cc1OC [Example 42, 7-(3,4-Dimethoxyphenyl)-5H-dibenzo[c,g]chromene-3,9-diol]
5 | 71 | – | 0.358 | 240 to 242 | N#CCc1ccc(-c2c3c(cc4ccc(O)cc24)-c2ccc(O)cc2CO3)cc1 [Example 57, 7-(4-Cyanomethylphenyl)-5H-dibenzo[c,g]chromene-3,9-diol]
6 | 4.1 | – | 0.152 | 159 to 161 | Oc1ccc2c(c1)COc1c-2cc2ccc(O)cc2c1-c1ccsc1 [Example 31, 7-Thien-3-yl-5H-dibenzo[c,g]chromene-3,9-diol]
7 | 60 | – | 1.6 | – | Oc1ccc2c(c1)COc1c-2cc2ccc(O)cc2c1-c1ncccn1 [Example 52, 7-(Pyrimidyl)-5H-dibenzo[c,g]chromene-3,9-diol]
8 | 34 | – | 2.42 | > 250 | COc1cncc(-c2c3c(cc4ccc(O)cc24)-c2ccc(O)cc2CO3)c1 [Example 53, 7-(5-Methoxy-3-Pyridyl)-5H-dibenzo[c,g]chromene-3,9-diol]
9 | 14 | – | 1.36 | > 250 | Oc1ccc2c(c1)COc1c-2cc2ccc(O)cc2c1-c1cccnc1 [Example 50, 7-(3-Pyridinyl)-5H-dibenzo[c,g]chromene-3,9-diol]
10 | 835 | – | – | 143 to 145 | Oc1ccc2c(c1)COc1c-2cc2ccc(O)cc2c1-c1ccc(Cl)c(Cl)c1 [Example 55, 7-(3,4-Dichlorophenyl)-5H-dibenzo[c,g]chromene-3,9-diol]
11 | 142 | – | 0.804 | 195 to 198 | CSc1ccc(-c2c3c(cc4ccc(O)cc24)-c2ccc(O)cc2CO3)cc1 [Example 56, 7-(4-Methylthiophenyl)-5H-dibenzo[c,g]chromene-3,9-diol]
12 | 18 | – | 0.063 | 243 to 246 | Oc1ccc2c(c1)COc1c-2cc2ccc(O)cc2c1-c1cccc(Cl)c1 [Example 33, 7-(3-Chlorophenyl)-5H-dibenzo[c,g]chromene-3,9-diol]
13 | 108 | – | > 5 | > 220 | Oc1ccc2c(c1)COc1c-2cc2ccc(O)cc2c1-c1ccccn1 [Example 54, 7-(2-Pyridyl)-5H-dibenzo[c,g]chromene-3,9-diol]
14 | – | – | – | > 220 | COc1ccncc1-c1c2c(cc3ccc(O)cc13)-c1ccc(O)cc1CO2 [Example 51, 7-(4-Methoxy-3-Pyridyl)-5H-dibenzo[c,g]chromene-3,9-diol]
15 | 1 | – | 0.017 | 224 to 226 | Cc1c2c(cc3ccc(O)cc13)-c1ccc(O)cc1CO2 [Example 21, 7-Methyl-5H-dibenzo[c,g]chromene-3,9-diol]
16 | 3.5 | – | 0.146 | 158 to 163 | Oc1ccc2c(c1)COc1c-2cc2ccc(O)cc2c1-c1ccco1 [Example 48, 7-(2-Furyl)-5H-dibenzo[c,g]chromene-3,9-diol]
17 | 320 | – | 3.48 | 162 to 165 | CC(C)(C)c1ccc(-c2c3c(cc4ccc(O)cc24)-c2ccc(O)cc2CO3)cc1 [Example 60, 7-(4-tert-Butylphenyl)-5H-dibenzo[c,g]chromene-3,9-diol]

Row | IC50 (human ERβ) [nM] | IC50 (human ERα; read-out: ERα IC50 (cell prints uM)) [µM] | IC50 (human ERα; read-out: ERα (nM) IC50) [µM] | melting point [°C] | SMILES
18 | 26 | – | 0.892 | 203 to 205 | CCc1ccc(-c2c3c(cc4ccc(O)cc24)-c2ccc(O)cc2CO3)cc1 [Example 62, 7-(4-Ethylphenyl)-5H-dibenzo[c,g]chromene-3,9-diol]
19 | 9.7 | – | 0.026 | 220 to 222 | Oc1ccc2c(c1)COc1c-2cc2ccc(O)cc2c1-c1ccccc1Cl [Example 35, 7-(2-Chlorophenyl)-5H-dibenzo[c,g]chromene-3,9-diol]
20 | 22 | – | 0.608 | 218 to 221 | Cc1ccc(-c2c3c(cc4ccc(O)cc24)-c2ccc(O)cc2CO3)cc1C [Example 39, 7-(3,4-Dimethylphenyl)-5H-dibenzo[c,g]chromene-3,9-diol]
21 | 17 | – | 0.434 | 220 to 223 | COc1cccc(-c2c3c(cc4ccc(O)cc24)-c2ccc(O)cc2CO3)c1 [Example 34, 7-(3-Methoxyphenyl)-5H-dibenzo[c,g]chromene-3,9-diol]
22 | 7.9 | – | 0.063 | 231 to 233 | Oc1ccc2c(c1)COc1cc3cc(O)ccc3cc1-2 [Example 4, 5H-Dibenzo[c,g]chromene-3,9-diol]
23 | 0.53 | – | 0.021 | 212 to 214 | Oc1ccc2c(c1)COc1cc3c(Cl)c(O)ccc3cc1-2 [Example 6, 8-Chloro-5H-dibenzo[c,g]chromene-3,9-diol]
24 | – | – | 0.172 | – | Oc1ccc2c(c1)COc1c-2cc2ccc(O)cc2c1-c1cccc2ccccc12 [Example 61, 7-(Naphthyl)-5H-dibenzo[c,g]chromene-3,9-diol]
25 | – | – | – | 220 to 223 | Cc1cc(C)cc(-c2c3c(cc4ccc(O)cc24)-c2ccc(O)cc2CO3)c1 [Example 63, 7-(3,5-Dimethylphenyl)-5H-dibenzo[c,g]chromene-3,9-diol]
26 | – | – | – | 199 to 201 | Oc1ccc2c(c1)COc1ccc3ccc(O)cc3c1-2 [Example 5, 5H-Dibenzo[c,f]chromene-3,11-diol]
27 | 1.4 | – | 0.073 | 240 to 242 | Oc1ccc2c(c1)COc1c-2cc2ccc(O)cc2c1-c1ccccc1F [Example 38, 7-(2-Fluorophenyl)-5H-dibenzo[c,g]chromene-3,9-diol]
28 | 3.3 | – | 0.012 | – | COc1c2c(c(Br)c3ccc(O)cc13)-c1ccc(O)cc1CO2 [Example 19, 12-Bromo-7-methoxy-5H-dibenzo[c,g]chromene-3,9-diol]
29 | 1.4 | – | 0.013 | – | COc1c2c(c(Cl)c3ccc(O)cc13)-c1ccc(O)cc1CO2 [Example 20, 12-Chloro-7-methoxy-5H-dibenzo[c,g]chromene-3,9-diol]
30 | 1.5 | – | 0.015 | – | Oc1ccc2c(c1)COc1c-2cc2ccc(O)cc2c1Cl [Example 12, 7-Chloro-5H-dibenzo[c,g]chromene-3,9-diol]
31 | 4.3 | – | 0.169 | – | COc1c2c(cc3ccc(O)cc13)-c1ccc(O)cc1CO2 [Example 15, 7-Methoxy-5H-dibenzo[c,g]chromene-3,9-diol]
32 | 1.2 | – | 0.013 | – | Oc1ccc2c(c1)COc1c-2cc2ccc(O)cc2c1Br [Example 13, 7-Bromo-5H-dibenzo[c,g]chromene-3,9-diol]
33 | 2 | – | 0.044 | – | C=Cc1c2c(cc3ccc(O)cc13)-c1ccc(O)cc1CO2 [Example 16, 7-Vinyl-5H-dibenzo[c,g]chromene-3,9-diol]
34 | – | – | – | > 250 | Oc1ccc2c(c1)COc1c-2cc2ccc(O)cc2c1-c1ccncc1 (as salt: HCl) [Example 37, 7-(4-Pyridyl)-5H-dibenzo[c,g]chromene-3,9-diol]

Row | SMILES | IC50 (human ERβ) [nM] | IC50 (human ERα; read-out: ERα IC50 (cell prints uM)) [µM] | IC50 (human ERα; read-out: ERα (nM) IC50) [µM] | melting point [°C]
35 | COc1ccc(-c2c3c(cc4ccc(O)cc24)-c2ccc(O)cc2CO3)cn1 [Example 51] | 22 | – | 0.764 | –
